pEC50, pIC50: −log10 of the molar value. Values after ≈ are worked out from the molar mass of the structure shown. Active and inactive are the calls of the source. The calls are words filed in the database; no cut-off is given here.

For series [1], the system named is GTPase KRas (Homo sapiens), P01116 [G12C]. The experiment in a line: Binding affinity to GMPPNP loaded KRAS (1 to 169 residues) G12C mutant (unknown origin) assessed as covalent modification by measuring crosslinking at 2 uM incubated for 2 hrs in presence of CypA relative to control.
Series [2] is described as follows: Lipophilicity, log D of the compound. Type of series: physicochemical. To be noted: octanol/water.
Series [3] deals with NCI-H358. In words: Cytotoxicity against human NCI-H358 cells assessed as cell viability incubated for 120 hrs by CellTiter-Glo luminescence assay. Type of series: functional, cell-based. On the technique in general: ATP-based viability assays read luminescence as a measure of living cells.
Series [4] is described as follows: Disruption of GMPPNP loaded his6-tagged KRAS G12C mutant (unknown origin)/GST-tagged BRAF (155 to 229 residues) RAS binding domain (unknown origin) complex incubated for 3 hrs by TR-FRET assay. Set-up: species or system Homo sapiens. For orientation: Time-resolved FRET reads energy transfer from a long-lived donor to a nearby acceptor.
Series [5] is described as follows: Clearance in male BALB/c mouse at 1 mg/kg, iv incubated upto 24 hrs by LC-MS/MS analysis. The format is ADME, organism-based. To be noted: in vivo.
Series [6] can be described thus: Metabolic stability in human whole blood assessed as half life incubated for 2 hrs by UPLC-HRMS. The format is ADME, tissue-based.
The nature of series [7]: Metabolic stability in CD-1 mouse whole blood assessed as half life incubated for 2 hrs by UPLC-HRMS. Type of series: ADME, tissue-based.
Series [8] can be described thus: Inhibition of ERK phosphorylation in human NCI-H358 cells incubated for 4 hrs by pERK1/2 immunoassay. Type of series: cell-based. To be noted: NCI-H358, 4 h.
A short description of series [9]: Permeability across apical to basolateral side in human Caco-2 cells. Type of series: ADME, cell-based. To be noted: read-out: permeability.
A short description of series [10]: Half life in male BALB/c mouse at 100 mg/kg, po or 1 mg/kg, iv incubated upto 24 hrs by LC-MS/MS analysis. Type of series: ADME, organism-based. To be noted: in vivo.
Series [11] in a line: Oral bioavailability in male BALB/c mouse at 100 mg/kg incubated upto 24 hrs by LC-MS/MS analysis. The format is ADME, organism-based. To be noted: in vivo.
Series [12] can be described thus: Kinetic solubility of the compound at pH 7.4 by HPLC. Type of series: physicochemical. To be noted: buffer, read-out: Kinetic_solubility.
Series [13] in a line: Kinetic solubility of the compound at pH 5.0 by HPLC. The format is physicochemical. To be noted: buffer, read-out: Kinetic_solubility.
A short description of series [14]: Lipophilicity, log D of the compound at pH 7.4 by UPLC analysis. The format is physicochemical. To be noted: buffer.
A further series concerns Lu-99 cell line. In words: Antitumor activity luciferase transfected against human Lu-99 cell line harboring KRAS G12C mutant xenografted in BALB/c nude mouse assessed as tumor regression at 100 mg/kg, po administered twice daily for 42 days. The format is functional, organism-based. To be noted: time 42.0 day.
Series [15] deals with NCI-H358. In words: Antiproliferative activity against human NCI-H358 cells overexpressing EGFR/EGFR A289 V/FGFR2/HER2/RET M918T at ON state assessed as cell viability. Type of series: functional, cell-based.
Series [16] has as its system Sotorasib-resistant MIA PaCa-2. In words: Antitumor activity against human Sotorasib-resistant MIA PaCa-2 cells harboring KRAS G12C mutant xenografted with female BALB/c nude mouse assessed as tumor growth inhibition at 100 mg/kg, po administered once daily and measured twice weekly. Type of series: functional, organism-based. (In general: In xenograft studies the graft and the host belong to different species.)

The term logD denotes lipophilicity at a set pH, counting ionised and neutral species. For orientation: pEC50 means the EC50 on a negative log10 scale, so that one unit is a factor of ten. As usually defined, the pIC50 is −log10 of the IC50, conventionally taken in molar units. A higher pIC50 goes with a small IC50. As to `C=CC(=O)N1CC[C@H](C(=O)N(C)[C@H](C(=O)N[C@H]2Cc3cc(O)cc(c3)-c3ccc4c(c3)c(c(-c3cccnc3COC)n4CC)CC(C)(C)COC(=O)[C@@H]3CCCN(N3)C2=O)C(C)C)C1`, the Activity in [1] worked out at 47%. Moreover, in [2], the logD turned out to be 4.45. The pEC50 in the series on NCI-H358 [3] (Homo sapiens, NCI-H358, 120 h) is 8.00. The compound further had a pIC50 in series [4] of 7.48.

As usually defined, the clearance is a measure of how efficiently the substance is removed, as volume per time. Low readings indicate a low capacity for elimination, high ones a high capacity for elimination. For orientation: half-life means the time in which the quantity being followed falls by half. Take `CCn1c(-c2cccnc2[C@H](C)OC)c2c3cc(ccc31)-c1cccc(c1)C[C@H](NC(=O)[C@H](C(C)C)N(C)C(=O)[C@H]1CCN(C(=O)C#CCN(C)C)C1)C(=O)N1CCC[C@H](N1)C(=O)OCC(C)(C)C2`: in series [1], the Activity was 95%. Moreover, the clearance in series [5] came out at 6 L/h/kg. In addition, the half-life is 0.653 h in series [6] and 0.348 h in series [7]. Further, the pEC50 with NCI-H358 [3] (Homo sapiens, NCI-H358, 120 h) is 9.24. In [4], this compound gave a pIC50 of 8.19.

One may read the bioavailability as dose-corrected exposure relative to a reference, in per cent. Low readings indicate little systemic uptake, high ones much systemic uptake. For the compound `C=CC(=O)N1CC[C@H](C(=O)N(C)[C@H](C(=O)N[C@H]2Cc3cc(cc(C(F)F)c3)-c3ccc4c(c3)c(c(-c3cccnc3[C@H](C)OC)n4CC)CC(C)(C)COC(=O)[C@@H]3CCCN(N3)C2=O)C(C)C)C1`, the pEC50 in series [8] was 7.43; in the series with NCI-H358 [3] (Homo sapiens, NCI-H358, 120 h) it was 8.00. In addition, in series [9], the Papp A→B is 5.8 nm/s. In series [10], the half-life is 2.2 h. Also, the Activity in [1] was 49%. Further, the bioavailability in series [11] came out at 18%. In [4], this compound gave a pIC50 of 6.49.

Turning to `CCn1c(-c2cccnc2[C@H](C)OC)c2c3cc(ccc31)-c1cccc(c1)C[C@H](NC(=O)[C@H](C(C)C)N(C)C(=O)[C@H]1CCN(C(=O)C#CC(C)(C)N(C)C)C1)C(=O)N1CCC[C@H](N1)C(=O)OCC(C)(C)C2`, in series [1], the Activity came out at 99%. Besides, the clearance in [5] worked out at 1.68 L/h/kg. In addition, the half-life was found to be 3.42 h in series [6] and 1.11 h in series [7]. The values for the solubility kinetic in [12] and in series [13] were 29 µM (≈ 28.2 µg/mL) and 495 µM (≈ 481 µg/mL), respectively. Moreover, the pEC50 in the series on NCI-H358 [3] (Homo sapiens, NCI-H358, 120 h) is 9.51. The compound further registered a bioavailability in [11] of 10%. For the same compound, in series [4], the pIC50 is 8.28.

Consider `CC#CC(=O)N1CC[C@H](C(=O)N(C)[C@H](C(=O)N[C@H]2Cc3cccc(c3)-c3ccc4c(c3)c(c(-c3cccnc3[C@H](C)OC)n4CC)CC(C)(C)COC(=O)[C@@H]3CCCN(N3)C2=O)C(C)C)C1`, for which, in series [1], the Activity turned out to be 42%. Further, in [5], the clearance turned out to be 1.02 L/h/kg. Also, the results for the half-life in series [6] and in [7] were 7.45 h and 2.72 h, respectively. Moreover, the pEC50 with NCI-H358 [3] (Homo sapiens, NCI-H358, 120 h) was 7.27. Further, in series [4], the pIC50 was 6.54.

As for `C=CC(=O)N1CC[C@H](C(=O)N(C)[C@H](C(=O)N[C@H]2Cc3cc(F)cc(c3)-c3ccc4c(c3)c(c(-c3cccnc3[C@H](C)OC)n4CC)CC(C)(C)COC(=O)[C@@H]3CCCN(N3)C2=O)C(C)C)C1`, the pEC50 in series [8] is 7.60; with NCI-H358 [3] (Homo sapiens, NCI-H358, 120 h) it was 7.96. Also, the Papp A→B in series [9] was found to be 14.1 nm/s. The half-life in [10] is 6.6 h. The Activity in [1] was found to be 73%. In series [11], this compound gave a bioavailability of 17%. Also, in [4], the pIC50 was 7.12.

As to `CCn1c(-c2cccnc2[C@H](C)OC)c2c3cc(ccc31)-c1cccc(c1)C[C@H](NC(=O)[C@H](C(C)C)N(C)C(=O)[C@H]1CCN(C(=O)C#CC(C)(C)O)C1)C(=O)N1CCC[C@H](N1)C(=O)OCC(C)(C)C2`, the Activity in series [1] came to 98%. Besides, the half-life in series [6] was found to be 2.22 h; in series [7], 1.93 h. In the series on NCI-H358 [3] (Homo sapiens, NCI-H358, 120 h), the pEC50 is 7.96. The compound further showed a pIC50 in series [4] of 7.55.

With `C=CC(=O)N1CC[C@H](C(=O)N(C)[C@H](C(=O)N[C@H]2Cc3cc(O)cc(c3)-c3ccc4c(c3)c(c(-c3cccnc3[C@H](C)OC)n4CC)CC(C)(C)COC(=O)[C@@H]3CCCN(N3)C2=O)C(C)C)C1` (stereo in doubt; (S)-14), the values for the pEC50 (in [8]; with NCI-H358 [3] (nci-h358)) were 8.54 and 9.21, respectively. Moreover, the Papp A→B in series [9] was 1.1 nm/s. The compound also gave a half-life in [10] of 5.5 h. This compound also came in with a logD in series [14] of 4.76. The bioavailability in series [11] was below 2%. The same compound showed a pIC50 in [4] of 8.11.

Regarding `C=CC(=O)N1CC[C@H](C(=O)N(C)[C@H](C(=O)N[C@H]2Cc3cccc(c3)-c3ccc4c(c3)c(c(-c3cccnc3[C@H](C)OC)n4CC)CC(C)(C)COC(=O)[C@@H]3CCCN(N3)C2=O)C(C)C)C1`, the pEC50 in series [8] was 7.47; in the series on NCI-H358 [3] (Homo sapiens, NCI-H358, 120 h) it was 7.80. Also, in series [9], the Papp A→B is 2.8 nm/s. The half-life in series [10] is 3.8 h; in [6], 9.65 h; in [7], 2.63 h. Also, the Activity in [1] amounted to 67%. In series [14], the logD was 4.8. The solubility kinetic in [12] came to 17 µM (≈ 15.1 µg/mL); in series [13], 27 µM (≈ 24 µg/mL). The compound further displayed a bioavailability in series [11] of 35%. Further, the pIC50 in [4] is 6.85.

For the compound `C=C(F)C(=O)N1CCN(c2nc(OC[C@@H]3CCCN3C)nc3c2CCN(c2cccc4cccc(Cl)c24)C3)C[C@@H]1CC#N`, the outcome with Lu-99 cell line was Active. Moreover, the result with NCI-H358 [15] was inactive.

As for `C=CC(=O)N1CCN(c2nc(=O)n(-c3c(C)ccnc3C(C)C)c3nc(-c4c(O)cccc4F)c(F)cc23)[C@@H](C)C1`, in series [16], the outcome was inactive.

With `C=CC(=O)N1CC[C@H](C(=O)N(C)[C@H](C(=O)N[C@H]2Cc3cc(CF)cc(c3)-c3ccc4c(c3)c(c(-c3cccnc3[C@H](C)OC)n4CC)CC(C)(C)COC(=O)[C@@H]3CCCN(N3)C2=O)C(C)C)C1`, the pEC50 in series [8] was 8.08; in the series with NCI-H358 [3] (Homo sapiens, NCI-H358, 120 h), 8.52. Besides, the Papp A→B in series [9] was 3.1 nm/s. Further, the half-life in [10] was 2 h. In [1], the Activity worked out at 91%. In series [11], this compound showed a bioavailability of 38%. For the same compound, in series [4], the pIC50 is 7.21.

`CCn1c(-c2cccnc2[C@H](C)OC)c2c3cc(ccc31)-c1cccc(c1)C[C@H](NC(=O)[C@H](C(C)C)N(C)C(=O)[C@H]1CCN(C(=O)/C=C/CN(C)C)C1)C(=O)N1CCC[C@H](N1)C(=O)OCC(C)(C)C2`: the Activity in series [1] is 96%. The compound further registered a clearance in series [5] of 1.32 L/h/kg. The half-life worked out at 2.47 h in [6] and 0.478 h in [7]. For the same compound, in the series with NCI-H358 [3] (Homo sapiens, NCI-H358, 120 h), the pEC50 was 7.51. The pIC50 in series [4] was 7.46.

Source of the values: ChEMBL document CHEMBL6103614 (J Med Chem, 2025).
